Literature values as cited in PMC5601361, “Targeting the Receptor for Advanced Glycation Endproducts (RAGE): A Medicinal Chemistry Perspective” (Journal of Medicinal Chemistry, 2017).
Entries after “also recorded” stand apart in the source; their conditions may differ. Like-named read-outs stand apart in the source and are kept apart here. One block for each molecule: values may come before it.

Experiments:
human sRAGE [1] = settings: VC1 domain; ITC; read-out: affinity for RAGE (Kd)
human sRAGE [2] = biological target: human sRAGE; set-up: method as in PMID 17508727; settings: SPR
human sRAGE [3] = settings: SPR
human sRAGE [4] = biological target: human sRAGE; set-up: method as in PMID 17660747; settings: V domain, SPR
human RAGE-Aβ = system: human RAGE-Aβ; set-up: method as in PMID 23140885
[5] = system: RAGE-overexpressing brain endothelial cells monolayer; set-up: method as in PMID 23140885; settings: artificial BBB system
CHO cells = system: CHO cells; set-up: method as in PMID 23140885; settings: in vitro
HT22 cells = settings: 10 μM
[6] = system: human RAGE-Aβ1–42 interaction; set-up: method as in PMID 26051601; settings: in vitro
APPswe/PS1 mice = settings: po 50 mg/kg every 2 days for 4 weeks; 50 mg/kg

Kd (human sRAGE [1]): 3200 to 9400 nM
Kd (human sRAGE [2]; V domain, read-out: Kd1): 550 nM
Kd (human sRAGE [2]; V domain, read-out: Kd2): 470 nM
Kd (human sRAGE [2]; VC1 domain, read-out: Kd1): 11 nM
Kd (human sRAGE [2]; VC1 domain, read-out: Kd2): 244 nM
Kd (human sRAGE [3]; V domain, read-out: Kd1): 500 nM
Kd (human sRAGE [3]; V domain, read-out: Kd2): 600 nM
Kd (human sRAGE [3]; VC1 domain, read-out: Kd1): 11 nM
Kd (human sRAGE [3]; VC1 domain, read-out: Kd2): 200 nM
Kd (human sRAGE [4]; S100B dimer, read-out: Kd): 8300 nM
Kd (human sRAGE [4]; S100B tetramer, read-out: Kd1): 1100 nM
Kd (human sRAGE [4]; S100B tetramer, read-out: Kd2): 42 nM
Molecule: S100B: Ca2+-binding S100/calgranulin family protein, endogenous RAGE ligand [Compound S100B]

RAGE-Aβ binding (human RAGE-Aβ): • RAGE-Aβ binding inhibition
IC50 (human RAGE-Aβ; ELISA on human RAGE-Aβ (RAGE-Aβ1–42 interaction)): 1210 nM
Molecule: CCCCc1sc(-c2ccc(OCCN3CCN(C)CC3)cc2)nc1-c1ccc(Oc2ccc(Cl)cc2)cc1 [Compound 2]
Aβ1–42 influx / Aβ transport [5]: Aβ transport inhibition; also recorded: • inhibition of Aβ1–42 influx in the brain
Aβ1–42-associated NF-κB activation (CHO cells): • inhibition of Aβ1–42-associated NF-κB activation (in vitro)

Molecule: CC(C)(C)OC(=O)N1CCN(CCCOc2ccc(-c3nc4ccc(Oc5ccc(Cl)cc5)cc4o3)cc2)CC1 [Compound 8]
toxicity in HT22 cells (HT22 cells): not toxic
RAGE-Aβ1–42 binding [6]: • RAGE-Aβ1–42 binding inhibition (in vitro)
amyloid deposition / Aβ and amyloid plaque levels in the brain (APPswe/PS1 mice): did not significantly affect
